Common to all, as to type: cell-based
Assay [1] concerns SDF-1α induced Ca flux in SUP-T1 cells. The experiment in a line: Inhibition of SDF-1α induced Ca flux in SUP-T1 cells (FLIPR). Particulars: Homo sapiens, read-out: inhibited SDF-1α induced Ca flux; for inhibition at 20 µg/mL: at 20 μg/mL. As for the experimental part:
(§1) Loading dye: Fluo-3, AM (Molecular Probes F-1241) is dissolved in anhydrous DMSO and stored frozen in aliquots. To increase the solubility of the dye in the loading medium, 10% (w/v) pluronic acid (Molecular Probes F-127) is added to the Fluo-3 stock solution immediately before use.
(§2) HBSS+20 mM Hepes buffer+0.2% BSA, pH 7.4. HBSS 10× [(w/o phenol red and sodium bicarbonate (Gibco 14 065-049)]; Hepes buffer 1M (Gibco 15 630-056), BSA (Sigma A3675). The flux buffer is vacuum-filtered and stored refrigerated for a maximum of 5 days. Before use in the experiment, the buffer is warmed at 37° C. in a waterbath.
(§3) The test compounds were diluted in flux buffer and added to 4 wells of a black microplate (4 parallel measurements per compound).
(§4) The chemokines are diluted in flux buffer to concentrations that are 4-fold higher than the desired concentrations required for stimulation of the cells (i.e. 2.5 nM for SDF-1α and 0.6 nM for RANTES). The chemokines were added to untreated 96-well Sero well compound plates (International Medical, Sterilin code 611F96). In the negative control well's (baseline monitoring), flux buffer is added instead of chemokine. As a positive control to check for dye loading efficiency, 20 μM digitonin (final concentration) was also included. The agonist plate was incubated in the FLIPR (37° C.) for 15-30 min.
SUP-T1 cells were centrifuged at room temperature (RT) and re-suspended in loading medium (RPMI-1640 containing 2% FBS and 4 μM Fluo-3, AM). The cells were incubate at room temperature for 45 min. then washed twice in flux buffer then incubated in flux buffer at room temperature for 10 min. The cells were centrifuged and re-suspended in flux buffer at a density of 3×10^6 cells per mL. […] The microplate is then gently centrifuged at room temperature. Homogeneous spreading of the cells on the bottom of the microplate wells was then confirmed with a microscope and the microplate was incubated in the FLIPR (37° C.) for 10 min. prior to testing.
(§5) The FLIPR settings (camera exposure time and laser power) are adjusted to obtain initial fluorescence values between 8,000 and 10,000 units. After monitoring a 20 second-baseline, the agonist (chemokine) (50 μL) is added by automatic pipettor with black pipette tips. Fluorescence is measured simultaneously in all wells of the microplate every 2 seconds (first 2 min) and thereafter every 6 seconds (additional 2 min). The average ca-flux measured in each set of 4 identical wells (one test compound) was calculated by the FLIPR software.
The compounds of the current invention were tested for inhibition of SDF-1α induced Ca flux in SUP-T1 cells using the method described above.

Another assay relates to HIV-1 NL4.3 or IIIB. The assay can be described thus: Inhibition of HIV-1 (NL4.3 or IIIB) replication in MT-4 cells (MTT). Particulars: Human immunodeficiency virus 1, IIIB; for EC50: MT4, read-out: EC50, inhibition of HIV-1 NL4.3 or IIIB replication. On the procedure:
Compounds were tested for their ability to inhibit HIV-1 replication in MT-4 cells or PBMC's (peripheral blood mononucleocytes) using published procedures (for example, see: Labrosse et al. J. Virol. 1998, 6381-6388; Simmons et al. J. Virol. 1998, 8453-8457; Donzella et al. Nature Medicine 1998, 72-77; Schols et al. J. Exp. Med. 1997, 1383-1388; De Clercq et al. Antiviral Res. 1997, 147-156; and Bridger et al. U.S. patent application Ser. No. 09/111,895). In addition to the above references, experimental methods for performing anti-viral assays can also be found in: Bridger et al. J. Med. Chem. 1995, 38, 366-378; Bridger et al. J. Med. Chem. 1996, 39, 109-119; Bridger et al. U.S. Pat. No. 5,698,546; Bridger et al. U.S. Pat. No. 5,583,131; Bridger et al. U.S. Pat. No. 5,817,807; De Clercq et al. Antimicrob. Agents and Chemother. 1994, 38, 668-674.
1. The HIV-1 strains NL4.3 and IIIB are T-tropic strains that exclusively use CXCR4 as the co-receptor for entry into cells. MT-4 Cells express CXCR4 but not CCR5.
Inhibition of HIV-1 NL4.3 (or IIIB) replication assays were performed as previously described (Bridger et al. J. Med. Chem. 1999, 42, 3971-3981; De Clercq et al. Proc. Natl. Acad. Sci, 1992, 89, 5286-5290; De Clercq et al. Antimicrob. Agents Chemother. 1994, 38, 668-674; Bridger et al. J. Med. Chem. 1995, 38, 366-378). Anti-HIV activity and cytotoxicity measurements were carried out in parallel. They were based on the viability of MT-4 cells that had been infected with HIV in the presence of various concentrations of the test compounds. After the MT-4 cells were allowed to proliferate for 5 days, the number of viable cells was quantified by a tetrazolium-based calorimetric 3-(4,5-dimethylthiazol-2-yl)-2,5-diphenyltetrazolium bromide (MTT) procedure in 96-well microtrays. In all of these assays, viral input (viral multiplicity of infection, MOI) was 0.01, or 100 times the 50% cell culture infective dose (CCID50). The EC50 was defined as the concentration required to protect 50% of the virus-infected cells against viral cytopathicity.

Assay [2] has as its system RANTES induced Ca flux in U87.CCR5 cells. The assay can be described thus: Inhibition of RANTES induced Ca flux in U87.CCR5 cells (FLIPR). As to conditions: U-87-CCR5, at 20 μg/mL, read-out: inhibited RANTES induced Ca flux. On the procedure: as §1, §2, §3, §4, §5
U87.CCR5 cells were seeded into the black microplates (Costar 3603) on the day before the experiment. The culture medium was removed from the cells and 100 μL of loading medium (DMEM+10% FBS+4 μM Fluo-3, AM) was added to each well and the plate was incubate at 37° C. for 45 min. The loading medium was then removed an the cells were washed twice with flux buffer using the CELL WASH microplate washer (Labsystems) followed by incubation in flux buffer for 10 min. at room temperature (the washing procedure was repeated twice). Finally, the wash buffer was removed from the microplate wells and 150 μL of the test compound, diluted in flux buffer to the desired concentration. The microplate was then incubated in the FLIPR drawer for 10 min. prior to testing. Measurements were performed as described above.
The compounds of the current invention were tested for inhibition of RANTES induced Ca flux in U87.CCR5 cells.

pEC50: −log10 of the molar value. Read-outs that look alike come from different tables or passages of the source. Some results are limits rather than exact numbers.

As a reminder, the EC50 is the concentration needed to bring the measured effect to its halfway point. As to `COc1ccc2c(c1)CC(NCc1ccc(CNCc3ccccn3)cc1)CC2` (stereo not shown) [Example 35, N-(2-pyridinylmethyl)-N′-(7-methoxy-1,2,3,4-tetrahydro-2-naphthalenyl)-1,4-benzenedimethanamine], the inhibition at 20 µg/mL in assay [1] was more than 20%. Also, the EC50 in the assay on HIV-1 NL4.3 or IIIB is less than 20 µg/mL.

For the molecule `Oc1cccc2c1CC(NCc1ccc(CNCc3ccccn3)cc1)CC2` (stereo not shown) [Example 41, N-(2-pyridinylmethyl)-N′-(8-hydroxy-1,2,3,4-tetrahydro-2-naphthalenyl)-1,4-benzenedimethanamine], the inhibition at 20 µg/mL in assay [1] was more than 20%. Also, the EC50 in the assay with HIV-1 NL4.3 or IIIB is less than 20 µg/mL.

With `CC(C)CNCCN(Cc1ccc(CNCc2ccccn2)cc1)C1CCCc2cccnc21` (stereo not shown) [Example 48, N-(2-pyridinylmethyl)-N′-[2-(isobutylamino)ethyl]-N′-(5,6,7,8-tetrahydro-8-quinolinyl)-1,4-benzenedimethanamine], the inhibition at 20 µg/mL in assay [1] is more than 20%. Moreover, in the assay on HIV-1 NL4.3 or IIIB, the EC50 is less than 20 µg/mL.

On to `c1ccc(CNCc2ccc(CN(Cc3ccccn3)C3CCCCc4cccnc43)cc2)nc1` (stereo not shown) [Example 85, N,N′-bis(2-pyridinylmethyl)-N′-(6,7,8,9-tetrahydro-5H-cyclohepta[b]pyridin-9-yl)-1,4-benzenedimethanamine], for which, in assay [1], the inhibition at 20 µg/mL is more than 20%. In addition, the EC50 in the assay with HIV-1 NL4.3 or IIIB was less than 20 µg/mL.

`N=C(N)NCCN(Cc1ccc(CNCc2ccccn2)cc1)C1CCCc2cccnc21` (stereo not shown) [Example 51, N-(2-pyridinylmethyl)-N′-(2-guanidinoethyl)-N′-(5,6,7,8-tetrahydro-8-quinolinyl)-1,4-benzenedimethanamine]: the inhibition at 20 µg/mL in assay [1] was more than 20%. Moreover, in the assay on HIV-1 NL4.3 or IIIB, the concentration giving a half-maximal response (EC50) was less than 20 µg/mL.

Regarding `c1ccc(CNCc2ccc(CNC3CCc4cccnc4C3)cc2)nc1` (stereo not shown) [Example 45, N-(2-pyridinylmethyl)-N′-(5,6,7,8-tetrahydro-7-quinolinyl)-1,4-benzenedimethanamine], the inhibition at 20 µg/mL in assay [1] was more than 20%. Also, the half-maximal effective concentration (EC50) in the assay with HIV-1 NL4.3 or IIIB is less than 20 µg/mL.

Take `c1ccc(CNCc2ccc(CN(Cc3ccccn3)C3CCCc4cccnc43)cc2)nc1` (stereo not shown) [Example 84, N,N′-bis(2-pyridinylmethyl)-N′-(5,6,7,8-tetrahydro-8-quinolinyl)-1,4-benzenedimethanamine]: the inhibition at 20 µg/mL in assay [1] was more than 20%. Moreover, the 50% effective concentration (EC50) in the assay on HIV-1 NL4.3 or IIIB is less than 20 µg/mL.

The pEC50 is the EC50 on a negative log10 scale, so that one unit is a factor of ten. As to `Cc1nc[nH]c1CN(Cc1ccc(CNCc2ccccn2)cc1)Cc1ccccn1` [Example 166, N-[(4-methyl)-1H-imidazol-5-ylmethyl]-N,N′-bis(2-pyridinylmethyl)-1,4-benzenedimethanamine], the inhibition at 20 µM in assay [1] is more than 20%. In addition, in the assay with HIV-1 NL4.3 or IIIB (MT4, read-out: EC50, inhibition of HIV-1 NLA.3 or IIIB replication), the pEC50 was more than 4.70.

On to `c1ccc(CNCc2ccc(CN(Cc3cc[nH]n3)C3CCCc4cccnc43)cc2)nc1` (stereo not shown) [Example 25, N-(2-pyridinylmethyl)-N′-[3-pyrazolylmethyl]-N′-(5,6,7,8-tetrahydro-8-quinolinyl)-1,4-benzenedimethanamine], for which the inhibition at 20 µg/mL in assay [2] was more than 20%.

Regarding `c1ccc(CNCc2ccc(CN(Cc3ccccn3)C3CCc4cccnc43)cc2)nc1` (stereo not shown) [Example 86, N,N′-bis(2-pyridinylmethyl)-N′-(6,7-dihydro-5H-cyclopenta[b]pyridin-7-yl)-1,4-benzenedimethanamine], in assay [1], the inhibition at 20 µg/mL is more than 20%. Further, the half-maximal effective concentration (EC50) with HIV-1 NL4.3 or IIIB was less than 20 µg/mL.

Regarding `c1ccc(CNCc2ccc(CN(Cc3ncc[nH]3)C3CCCc4cccnc43)cc2)nc1` (stereo not shown) [Example 15, N-(2-pyridinylmethyl)-N′-(1H-imidazol-2-ylmethyl)-N′-(5,6,7,8-tetrahydro-8-quinolinyl)-1,4-benzenedimethanamine], the inhibition at 20 µg/mL in assay [1] was more than 20%. Besides, in the assay with HIV-1 NL4.3 or IIIB, the EC50 was less than 20 µg/mL.

For `O=C(NCCN(Cc1ccc(CNCc2ccccn2)cc1)C1CCCc2cccnc21)Nc1ccccc1` (stereo not shown) [Example 55, N-(2-pyridinylmethyl)-N′-[2-(phenylureido)ethyl]-N′-(5,6,7,8-tetrahydro-8-quinolinyl)-1,4-benzenedimethanamine], the inhibition at 20 µg/mL in assay [1] is more than 20%. In addition, the EC50 with HIV-1 NL4.3 or IIIB is less than 20 µg/mL.

With `c1ccc(CNCc2ccc(CN(Cc3nccs3)C3CCCc4cccnc43)cc2)nc1` (stereo not shown) [Example 28, N-(2-pyridinylmethyl)-N′-[2-thiazolylmethyl]-N′-(5,6,7,8-tetrahydro-8-quinolinyl)-1,4-benzenedimethanamine], the inhibition at 20 µg/mL in assay [1] was more than 20%. In addition, in the assay with HIV-1 NL4.3 or IIIB, the EC50 is less than 20 µg/mL.

As for `c1ccc(CNCc2ccc(CN(Cc3ccc4ccccc4n3)C3CCCc4cccnc43)cc2)nc1` (stereo not shown) [Example 18, N-(2-pyridinylmethyl)-N′-(2-quinolinylmethyl)-N′-(5,6,7,8-tetrahydro-8-quinolinyl)-1,4-benzenedimethanamine], the inhibition at 20 µg/mL in assay [1] was more than 20%. Also, the EC50 in the assay with HIV-1 NL4.3 or IIIB was less than 20 µg/mL.

With `c1ccc(CNCc2ccc(CN(Cc3ccccn3)CC3CCc4cccnc43)cc2)nc1` (stereo not shown) [Example 89, N,N′-bis(2-pyridinylmethyl)-N′[(6,7-dihydro-5H-cyclopenta[b]pyridin-7-yl)methyl]-1,4-benzenedimethanamine], the inhibition at 20 µg/mL in assay [1] is more than 20%. Further, the 50% effective concentration (EC50) in the assay with HIV-1 NL4.3 or IIIB was less than 20 µg/mL.

`O=C(NC1CCCCc2cccnc21)c1ccc(CNCc2ccccn2)cc1` (stereo not shown) [Example 82, N-(6,7,8,9-tetrahydro-5H-cyclohepta[b]pyridin-9-yl)-4-[[(2-pyridinylmethyl)amino]methyl]benzamide]: in assay [1], the inhibition at 20 µg/mL is more than 20%.

Consider `c1ccc(CN2CCC(N(Cc3ccc(CNCc4ccccn4)cc3)Cc3ccccn3)C2)cc1` (stereo not shown) [Example 145, N-[1-(benzyl)-3-pyrrolidinyl]-N,N′-bis(2-pyridinylmethyl)-1,4-benzenedimethanamine], for which the inhibition at 20 µM in assay [1] was more than 20%.

These data come from US6750348B1, “Chemokine receptor binding heterocyclic compounds” (AnorMED, Inc., priority 1999, dated 2004).
